These are literature values, as cited in publication PMC5488687 (The Biochemical journal, 2016).

Like-named read-outs stand apart in the source and are kept apart here.

Series [1] relates to cells with amplified centrosomes.
In series [2] the test system is neuroblastoma N1E-115 cells. The settings on record: read-out: IC50, cell viability of N1E-115 cells.
Series [3] concerns normal human dermal fibroblasts (NHDF). The following applies: read-out: IC50, cell viability of NHDF cells.
The subject of series [4] is neuroblastoma N1E-115 cells.
Series [5] has as its system normal human dermal fibroblasts (NHDF).

As for `CCCc1cc(C(=O)N[C@H](Cc2ccc(-c3cccc(OC(F)(F)F)c3)nc2)C(=O)N[C@@H]2CCNC2)sc1C` [AZ82], the half-maximal inhibitory concentration (IC50) (usually the concentration at which inhibition is half-maximal) in the series with KIFC1 (read-out: IC50, MT-stimulated KIFC1 ATPase activity) was 0.3 µM. In addition, the “multipolar spindle formation and mitotic catastrophe” value in series [1] is “triggered multipolar spindle formation and mitotic catastrophe”. The “binding to KIFC1/MT complex versus KIFC1 or MT alone” value in the series on KIFC1/MT complex was “bound specifically to KIFC1/MT complex but did not interact directly with KIFC1 or MT”.
As for `O=C(O)c1cc(I)ccc1NC(=O)[C@H](Cc1ccccc1)NCc1ccccc1` [CW069], the IC50 in the series on KIFC1 (read-out: IC50, KIFC1 ATPase activity) was 75 µM; in series [2], 86 µM; in series [3], 187 µM. Besides, the “multipolar spindle formation in N1E-115 cells” value in series [4] is reported as “increased multipolar spindle formation”. In addition, the “effect on bipolar spindle formation in NHDF” value in series [5] is reported as “no effects”.
